Reference: publication PMC10567728, “Targeted imaging of uPAR expression in vivo with cyclic AE105 variants” (Scientific Reports, 2023)
Like-named read-outs stand apart in the source and are kept apart here. Positions of bridges follow the written chain, without caps; N, C: chain ends. Non-standard residues stand in square brackets, D forms with d. Residues, ends and D or L forms follow the SMILES beside them. *: point of attachment. DOTA = O=C(O)CN1CCN(CC(=O)O)CCN(CC(=O)*)CCN(CC(=O)O)CC1; Cha = N[C@@H](CC1CCCCC1)C(=O)O

Assays:
uPAR [1] = settings: read-out: KD of the uPA•uPAR interaction; cited from earlier work
uPAR•uPA interaction = target: T1, uPAR•uPA interaction (Homo sapiens, UniProt Q03405); test: SPR competition assay of the uPAR•uPA interaction; format: binding; settings: for IC50: competition of uPAR•uPA interaction, 2 nM uPAR, 20 °C, n = 3
T1 construct: Recombinant human uPAR^1–283 was expressed; made in house; host or cells: Drosophila melanogaster S2 cells
T1 sequence (Q03405 23-305): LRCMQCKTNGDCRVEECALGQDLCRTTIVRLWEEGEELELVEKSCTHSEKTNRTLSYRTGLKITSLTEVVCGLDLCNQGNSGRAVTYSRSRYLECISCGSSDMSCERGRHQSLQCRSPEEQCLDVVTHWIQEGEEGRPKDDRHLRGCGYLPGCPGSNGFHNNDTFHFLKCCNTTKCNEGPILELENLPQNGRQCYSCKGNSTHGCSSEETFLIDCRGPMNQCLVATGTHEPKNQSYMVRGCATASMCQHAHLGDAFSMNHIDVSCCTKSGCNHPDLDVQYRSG
Description: The IC50-values of antagonistic peptides on the uPAR•uPA interaction were determined with SPR using a Biacore T200™ or Biacore 3000™ instruments (Cytiva) essentially as described[4],[56],[77]. In brief, we immobilized high levels of pro-uPA^S356A (0.1 pmol pro-uPA/mm^2) on a CM5 sensor chip via amine coupling. The experiments were conducted by injecting 2 nM uPAR in presence of a threefold dilution series of a given antagonistic peptide for 300 s with a flow rate of 50 µL/min at 20 °C. The high immobilization levels result in binding conditions that are entirely controlled by mass transport limitations (MTL). Accordingly, the observed association rates (vobs) are directly proportional to the concentrations of binding-active uPAR in solution. To determine the IC50, we also measured a standard curve of uPAR binding (a twofold dilution series of 0.06 to 2 nM uPAR, linear due to MTL). The running buffer was 10 mM HEPES, 150 mM NaCl, 3 mM EDTA, and 0.05% (v/v) surfactant P-20 at pH 7.4, and the regeneration buffer was 0.1 M acetic acid in 0.5 M NaCl.

uPAR [2] = target: T2, uPAR (Homo sapiens, UniProt Q03405); test: SPR real-time binding kinetics, peptides in solution and immobilised uPAR
T2 construct: Recombinant human uPAR^1–283 was expressed; made in house; host or cells: Drosophila melanogaster S2 cells
T2 sequence (Q03405 23-305): as above
Description: The real-time binding kinetics of uPAR•peptide interactions were measured with SPR using a Biacore T200™(Cytiva); essentially as described in[56],[77]. In brief, uPAR was covalently immobilised on a CM5 sensor chip via amine coupling resulting in a surface density of 1157–1581 RU (~ 33–44 fmol/mm^2). The binding kinetics for the peptides to immobilised uPAR were measured using a single cycle protocol. In this setup, peptides were injected as five serial two-fold dilutions with a contact time of 200 s. After the last analyte injection, the dissociation time was set to 1000 s. The sensor chip was regenerated with two consecutive injections of 0.1 M acetic acid in 0.5 M NaCl. All experiments were conducted at 20 °C with a flow rate of 50 µL/min in 10 mM HEPES, 150 mM NaCl, 3 mM EDTA, and 0.05% (v/v) surfactant P-20 at pH 7.4. The kinetic rate constants (kon and koff) were determined by non-linear regression fitting of the curves to the simple bimolecular interaction model (BiacoreT200 Evaluation™ 3.0 software).

uPAR [3] = target: T2, uPAR; test: Nano-DSF thermal stability of uPAR•peptide complexes; settings: for Tm (apparent melting temperature of uPAR•peptide complex): 15 µM uPAR, 30 µM peptide, PBS pH 7.4, n = 3; for increase in apparent Tm: DOTA-conjugated peptides, compared to (1b)
Description: The thermal stability of the uPAR•peptide complexes was analyzed with Nano-DSF using a Prometheus NT.48™ (Nanotemper). uPAR (15 µM) was mixed with twofold excess of peptide (30 µM) in PBS pH 7.4 and incubated for 15 min at RT to ensure complex formation. Samples containing either 15 µM uPAR or 30 µM of each peptide were included as controls. The samples were loaded into standard capillaries and in triplicates. To unfold the proteins, the samples were exposed to an increasing temperature gradient from 20 to 95 °C with a ramping rate of 1 °C/min. The excitation power was set to 50% (Ex.280 nm) and the fluorescence emission collected at 330 nm and 350 nm. The melting temperatures of the complexes were determined in the PR.ThermControl software (Nanotemper) from the first derivative of the fluorescence ratio (350 nm/330 nm).

[4] = test system: uPAR expression in U87MG tumor-bearing mice; format: in vivo; settings: [64Cu]Cu-DOTA peptides
Description: Five weeks old female NMRI nude mice were purchased from Janvier (Le Genest-Saint-Isle, France) and housed in groups to acclimatize for a week upon arrival with light/dark period of 12/12 h and under controlled environmental conditions (temperature: 20–22 °C, relative humidity: 55%). Access to fresh water and standard pellet diet was provided ad libitum. Human glioblastoma cancer cell line U87MG (ATCC, Manassas, USA) was cultured in Dulbecco’s modified eagle medium (DMEM) supplemented with 10% fetal bovine serum and 1% penicillin–streptomycin at 37 °C and 5% CO2. Cells were harvested by trypsinization at a confluence of 70–90%. Mice were anesthetized (3–4% sevoflurane in 65% N2 and 35% O2) and ~ 4 × 10^6 U87MG cells resuspended in 100 μL PBS were injected subcutaneously into the right flank. Tumors were allowed to grow for 20 days. Tumor sizes were monitored using caliper measurements (Volume = 0.5 x (Length x Width^2)).
Tumor-bearing mice (tumor volumes (mean ± SD) of 221 ± 105 mm^3) were grouped (n = 6 per group) and anesthetized (3–4% sevoflurane in 65% N2 and 35% O2) prior to imaging. The four different [^64Cu]Cu–DOTA conjugated peptides were administered via tail vein injections of 5.4 ± 0.4 MBq corresponding to 118 ± 7 pmol (1b), 111 ± 4 pmol (8b), 92 ± 3 pmol (9b), and 75 ± 4 pmol (11b) (mean ± SD). Whole-body imaging consisting of a CT acquisition followed by a static PET acquisition was performed on an Inveon® small animal imaging system (Siemens Medical Systems, Malvern, PA, USA). PET/CT imaging was performed 1 h, 22 h, and 46 h post-injection (p.i.) of tracer with a 5 min, 10 min and 15 min PET scan, respectively. During scans the animals were placed on a heated bedding system to keep the body temperature stable. The PET acquisition was performed with an energy window of 350–650 keV and a time resolution of 6 ns, and data was corrected for dead time and decay. The CT scan consisted of 360 projections, with a tube voltage of 65 kV, a tube current of 500 μA and an exposure time of 400 ms per projection. Sinograms from PET scans were reconstructed using a 3-dimensional maximum a posteriori algorithm with correction for scatter and attenuation (CT-based). PET and CT images were co-registered and analyzed using Inveon Research Workplace software (Siemens Medical Solutions). The mean percentage of injected dose per grams (%ID/g) in different tissues was extracted by manually creating regions of interest (ROI) on fused PET/CT images.

U87MG tumor-bearing mice = test: Ex vivo biodistribution by gamma-counting of resected organs; format: in vivo; settings: [64Cu]Cu-DOTA peptides, ex vivo at 46 h; also tumor to muscle or heart ratios
Description: After the last PET/CT scan at 46 h p.i., mice were euthanized by cervical dislocation under anesthesia, and tumor, blood, heart, lung, liver, spleen, kidney, and muscle tissue were resected. All tissues were weighted, and the radioactivity measured in a gamma counter (Wizard2, Perkin Elmer). Data was corrected for decay, tissue weight and injected amount of radioactivity.

[5] = [63Cu]-DOTA labelled peptides, single-cycle SPR
[6] = single cycle SPR, immobilised uPAR, 20 °C
[7] = single cycle SPR, immobilised uPAR, 20 °C, 1:1 model
[8] = single cycle SPR, immobilised uPAR, 20 °C, read-out: kon

Row | Compound | Kd (uPAR [1]) | IC50 (uPAR•uPA interaction) | Kd (uPAR [2]; [5]) | koff (uPAR [2]; [5]) | kon (uPAR [2]; [5]) | koff (uPAR [2]; [6]) | Kd (uPAR [2]; [7]) | kon (uPAR [2]; [8]) | Tm (apparent melting temperature of uPAR•peptide complex) (uPAR [3]) | increase in apparent Tm (uPAR [3]) | tumor uptake and tumor-to-organ ratios compared to linear control (8b) [4] | difference in tumor max compared to (8b) ([4]; PET at 22 h) | tracer uptake compared to (8b) ([4]; all PET scans (1 h, 22 h, 46 h)) | difference in activity of resected tumors compared to (8b) (U87MG tumor-bearing mice) | IC50 of DOTA-conjugated peptide compared to unconjugated peptide (uPAR•uPA interaction; (1b) vs (1), (8b) vs (8)) | reduction of affinity on DOTA-conjugation (uPAR [2]; real-time binding kinetics, vs unconjugated peptides) | tumor uptake and imaging contrast, (1b) compared with (8b) ([4]; PET scanning or ex vivo counting of resected organs)
1 | urokinase-type plasminogen activator [uPA] | 0.02 nM | – | – | – | – | – | – | – | – | – | – | – | – | – | – | – | –
2 | CC(C)C[C@@H]1NC(=O)[C@H](Cc2ccc(O)cc2)NC(=O)[C@H](NC(=O)[C@@H](CO)NC(=O)[C@H](Cc2ccccc2)NC(=O)[C@H](CC2CCCCC2)NC(=O)[C@H](CC(=O)O)NC(=O)CN2CCN(CC(=O)O)CCN(CC(=O)O)CCN(CC(=O)O)CC2)CSSC[C@@H](C(N)=O)NC(=O)[C@H](Cc2c[nH]c3ccccc23)NC1=O [9b] ({DOTA}-D[Cha]F[dS][dC]YLWC-NH2; disulfide 5-9) | – | 7.3 ± 0.2 nM | 22 nM | 0.00659 ± 2e-05 s⁻¹ | 2.99 ± 0.04 105 M-1 s-1 | 0.002744 ± 4e-06 s⁻¹ | 4.26 nM | 644000 ± 2000 M⁻¹ s⁻¹ | ≥ 70 °C | approximately 11 °C | significant albeit weak improvement | statistically significant | small but consistently higher uptake | statistically significant | – | – | –
3 | CC(C)C[C@H](NC(=O)[C@H](Cc1ccc(O)cc1)NC(=O)[C@@H](CCCNC(=N)N)NC(=O)[C@@H](CO)NC(=O)[C@H](Cc1ccccc1)NC(=O)[C@H](CC1CCCCC1)NC(=O)[C@H](CC(=O)O)NC(=O)CN1CCN(CC(=O)O)CCN(CC(=O)O)CCN(CC(=O)O)CC1)C(=O)N[C@@H](Cc1c[nH]c2ccccc12)C(=O)N[C@@H](CO)C(N)=O [8b] | – | 8.2 ± 0.1 nM | 13.9 nM | 0.00425 ± 1e-05 s⁻¹ | – | 0.002064 ± 2e-06 s⁻¹ | 4.22 nM | 490000 ± 1000 M⁻¹ s⁻¹ | ~ 70 °C | approximately 11 °C | – | – | – | – | four to fivefold higher | 8–11 fold | no significant differences
